Reference: patent publication US20070092587A1, “Extract from plant of japanese parsley family and process for producing the same” (priority 2004, published 2007)

Tests used:
[1] = molecular target: T1, human muscle cell-derived aldose reductase (Homo sapiens, UniProt P15121); experiment: Inhibitory action for aldose reductase (change in NADPH absorbance at 340 nm, methylglyoxal substrate); assay type: biochemical
T1 construct: purchased Wako Pure Chemical Industries, Ltd
Experimental: Inhibitory action for aldose reductase of the extract from the root portion of Angelica keiskei koidz. was determined in accordance with the following method. As a sample, 20 μL of a 100 mM methylglyoxal solution was added to 10 μL of each of the kinds of ethanol extracts from the root portion of Angelica keiskei koidz. prepared in Example 4, and 10 μL of the water extract from the root portion of Angelica keiskei koidz. prepared in Preparation Example 1 (a solution prepared by dissolving the extract in a 50% aqueous dimethyl sulfoxide solution), 100 μL of 0.2 M phosphate buffer (pH 6.2), 20 μL of 1 mM NADPH (phosphate buffer), and 10 μL of a human muscle cell-derived aldose reductase solution (0.1 U/mL, manufactured by Wako Pure Chemical Industries, Ltd., phosphate buffer). For a period of 180 seconds after 30 seconds passed, the change in absorbance of NADPH at 340 nm was determined. As a negative control, a 50% aqueous dimethyl sulfoxide solution was used in place of the sample. Also, the absorbance was determined using distilled water as a blank solution for each sample in place of the methylglyoxal solution. The determination values were expressed as an average of two experimental values. The inhibitory ratio (%) for aldose reductase was calculated in accordance with the following formula: Inhibitory Ratio (%)=[1−(ΔAs−ΔAsb)/(ΔAc−ΔAcb)]×100, wherein ΔAs and ΔAc show a change in the absorbance of each of the sample solution and the negative control solution per minute; and ΔAsb and ΔAcb show a change in the absorbance of the blank solutions for the sample solution and the negative control solution per minute.
The inhibitory activity for aldose reductase of the extract from the leaf and stem portions of Angelica keiskei koidz. prepared in Example 3 was determined in the same manner as in Example 8.

[2] = test system: Preadipocyte cell line 3T3-L1; experiment: Induction of differentiation into adipocytes (amount of triglyceride biosynthesis); assay type: cell-based; conditions: for induction of biosynthesis of triglyceride (inducing action on differentiation into mature adipocytes): isolated compounds at final 1-30 μM, seven days after addition
Experimental: The induction of differentiation into adipocytes was carried out by partially modifying the method of Rubin C. S. et al. (J. Biol. Chem., Vol. 253, No. 20, p7570-7578 (1978)). Preadipocyte cell line 3T3-L1 (ATCC CCL-92.1) was suspended in a 10% fetal bovine serum (manufactured by GIBCO)-containing Dulbecco's modified Eagle's medium (manufactured by Sigma, D6046) containing 200 μM ascorbic acid (hereinafter referred to as A-D-MEM medium) so as to have a density of 4×10^3 cells/mL, and the suspension was put in each well of a 12-well microtiter plate in an amount of 2 mL per well. The cells were cultured at 37° C. for 7 days in the presence of 5% carbon dioxide gas. The medium was exchanged with the same medium on the second day and the fourth day. On the seventh day, the medium was exchanged with A-D-MEM medium containing 0.25 μM dexamethasone. […] Here, there were set a group with addition of 4 μL of a 5 mg/mL aqueous solution of insulin (manufactured by TAKARA BIO INC.) as a positive control, and a group with addition of dimethyl sulfoxide as a negative control. After 45 hours, the medium was exchanged with A-D-MEM medium. […] The cells were cultured for additional 7 days.
The amount of triglyceride in the adipocytes was determined as an index for inducing differentiation into matured adipocytes, and as evaluation of insulin-mimetic action. After the termination of the culture, the medium was removed, and the cells were washed twice with a phosphate buffered saline. One milliliter of a solvent of hexane: isopropanol=3:2 was added thereto. The mixture was allowed to stand at room temperature for 30 minutes, and thereafter the supernatant was collected. The procedures were repeated again, and 2 mL of the resulting supernatant was concentrated to dryness. The precipitate was dissolved in 100 μL of isopropanol, and thereafter the amount of triglyceride contained in 10 μL of the resulting solution was determined with Triglyceride E-Test (manufactured by Wako Pure Chemical Industries, Ltd., code 432-40201). All of the determinations were carried out twice.
Specifically, as a sample, there was set a group with addition of the dimethyl sulfoxide solution of the extract from the root portion of Angelica keiskei koidz. with the 40% aqueous ethanol solution at a final concentration of 0.1% or 0.033%, the dimethyl sulfoxide solution of the extract from the root portion of Angelica keiskei koidz. with the 50% aqueous ethanol solution at a final concentration of 0.033% or 0.011%, the dimethyl sulfoxide solution of the extract from the root portion of Angelica keiskei koidz. with the 70% aqueous ethanol solution at a final concentration of 0.022%, the dimethyl sulfoxide solution of the extract from the root portion of Angelica keiskei koidz. with the 60% or 80% aqueous ethanol solution or the dimethyl sulfoxide solution of the extract with the 100% ethanol so as to have a final concentration of 0.067% or 0.022%, respectively, to each well. Here, there were set a group with addition of 4 μL of a 5 mg/mL aqueous solution of insulin (manufactured by TAKARA BIO INC.) as a positive control, and a group with addition of dimethyl sulfoxide as a negative control. Thereafter, the medium and the sample were exchanged in the same manner as in the method described in Example 5, and after seven days from the addition of the sample, the amount of triglyceride in the adipocytes was determined.
Here, there were set a group with addition of 4 μL of a 5 mg/mL aqueous solution of insulin (manufactured by TAKARA BIO INC.) as a positive control, and a group with addition of dimethyl sulfoxide as a negative control. Thereafter, the medium and the sample were exchanged in the same manner as in the method described in Example 5, and after seven days from the addition of the sample, the amount of triglyceride in the adipocytes was determined.

[3] = molecular target: aldose reductase (Homo sapiens, UniProt P15121); conditions: clarified in WO 2004/031165; cited from earlier work
[4] = test system: mature adipocytes (3T3-L1 cells); experiment: Enhancing action on glucose uptake (2-deoxyglucose uptake) into mature adipocytes; assay type: cell-based; conditions: insulin 1 μg/mL positive control, compared to negative control
Experimental: The induction of differentiation into mature adipocytes was carried out by partially modifying the method of Rubin C. S. et al. 3T3-L1 cells were suspended in a 10% fetal bovine serum-containing Dulbecco's modified Eagle's medium containing 200 μM ascorbic acid so as to have a density of 4×10^3 cells/mL, and the suspension was put in each well of a 12-well microtiter plate in an amount of 2 mL per well. The cells were cultured at 37° C. for 7 days in the presence of 5% carbon dioxide gas. On the seventh day, the medium was exchanged with 2 mL of a 10% fetal bovine serum-containing Dulbecco's modified Eagle's medium containing 200 μM ascorbic acid, 0.25 μM dexamethasone, 10 μg/mL insulin and 0.5 mM 3-isobutyl-1-methylxanthine (manufactured by Nacalai Tesque, Inc., 19624-44). After 45 hours, the medium was exchanged with 2 mL of a 10% fetal bovine serum-containing Dulbecco's modified Eagle's medium containing 200 μM ascorbic acid and 5 μg/mL insulin. The medium was exchanged on after 2 days and 4 days, and the cells were cultured for 7 days, to give mature adipocytes.
As the evaluation of enhancing action on glucose uptake, and also as the evaluation of insulin-mimetic action, the amount of 2-deoxyglucose uptake into mature adipocytes stimulated with the sample ([…]) in the adipocytes was determined.
After the termination of the culture, the medium was removed, and the cells were washed twice with a 0.1% (w/v) bovine serum albumin (manufactured by Sigma, A8022)-containing Dulbecco's modified Eagle's medium. Thereafter, 1 mL of the […] ethanol solution at a final concentration of 0.1%, 0.067%, or 0.022%, […] solution at a final concentration of 0.2%, 0.067%, or 0.022%, […] ethanol solution or the dimethyl sulfoxide solution of the extract from the root portion of Angelica keiskei koidz. with the 100% ethanol so as to have a final concentration of 0.067% or 0.022%, each extract being prepared in Example 4, was put to each well. The cells were cultured overnight at 37° C. in the presence of 5% carbon dioxide gas. Here, a group without addition of the sample was set as a negative control. After the overnight culture, the cells were washed twice with a HEPES buffered saline (140 mM NaCl, 5 mM KCl, 2.5 mM MgSO4, 1 mM CaCl2, 20 mM HEPES-Na (pH 7.4)), and 0.9 mL of the […] ethanol solution at a final concentration of 0.1%, 0.067%, or 0.022%, […] solution at a final concentration of 0.2%, 0.067%, or 0.022%, […] ethanol solution or the dimethyl sulfoxide solution of the extract from the root portion of Angelica keiskei koidz. with the 100% ethanol so as to have a final concentration of 0.067% or 0.022%, was added thereto. The cells were cultured at 37° C. for 75 minutes. At the point when 45 minutes passed, there was set in a well without addition of the sample a group with addition of insulin so as to have a final concentration of 1 μg/mL as a positive control. Thereafter, 100 μL of a HEPES buffered saline containing 0.5 μCi/mL 2-deoxy-[1,2-^3H(N)]-glucose (manufactured by PerkinElmer Life Sciences Inc., NET549A) and 1 mM 2-deoxyglucose (manufactured by Nacalai Tesque, Inc., 10722-11) was added thereto, and the cells were further cultured at 37° C. for 10 minutes. […] The radioactivity was determined with a liquid scintillation counter LS6500 (manufactured by Beckmann) using 25 μl of the supernatant with Ultima Gold (manufactured by PerkinElmer Life Sciences Inc., 6013329) as a scintillation cocktail. […]

[5] = isolated compounds at final 3-30 μM

Molecule: bavachromanol
- Inhibitory Ratio (%) of Aldose Reductase ([1]; 2.5 μM): 42.1%
- Inhibitory Ratio (%) of Aldose Reductase ([1]; 5 μM): 58.2%
- Inhibitory Ratio (%) of Aldose Reductase ([1]; 10 μM): 70.5%
- Inhibitory Ratio (%) of Aldose Reductase ([1]; 20 μM): 80.1%

Molecule: CC(C)=CCC/C(C)=C/Cc1c(O)ccc2c1O[C@H](c1ccc(O)cc1)CC2=O [Prostratol F, prostratol F]
- induction of biosynthesis of triglyceride (inducing action on differentiation into mature adipocytes) [2]: induction of biosynthesis of triglyceride was found
- Inhibitory Ratio (%) of Aldose Reductase ([1]; 2.5 μM): 27.4%
- Inhibitory Ratio (%) of Aldose Reductase ([1]; 5 μM): 46.3%
- Inhibitory Ratio (%) of Aldose Reductase ([1]; 10 μM): 57.1%
- Inhibitory Ratio (%) of Aldose Reductase ([1]; 20 μM): 61.4%

Molecule: COc1ccc2c(c1CC=C(C)C)O[C@H](c1ccc(O)cc1)CC2=O [Munduleaflavanone A, munduleaflavanone A]
- induction of biosynthesis of triglyceride (inducing action on differentiation into mature adipocytes) [2]: induction of biosynthesis of triglyceride was found
- Inhibitory Ratio (%) of Aldose Reductase ([1]; 2.5 μM): 38.5%
- Inhibitory Ratio (%) of Aldose Reductase ([1]; 5 μM): 54.6%
- Inhibitory Ratio (%) of Aldose Reductase ([1]; 10 μM): 68.5%
- Inhibitory Ratio (%) of Aldose Reductase ([1]; 20 μM): 73.8%

Molecule: CC(C)=CCCC1(C)Oc2c(C(=O)/C=C/c3ccc(O)cc3)ccc(O)c2CC1O (stereo not shown) [TB2]
- induction of biosynthesis of triglyceride (inducing action on differentiation into mature adipocytes) [2]: induction of biosynthesis of triglyceride was found
- inhibitory actions for aldose reductase [3]: inhibitory actions for aldose reductase are found

Molecule: CC(C)=CCc1c(O)ccc(C(=O)/C=C/c2ccc(O)cc2)c1O [Isobavachalcone, isobavachalcone]
- induction of biosynthesis of triglyceride (inducing action on differentiation into mature adipocytes) [2]: induction of biosynthesis of triglyceride was found
- Inhibitory Ratio (%) of Aldose Reductase ([1]; 10 μM): 30.2%
- Inhibitory Ratio (%) of Aldose Reductase ([1]; 20 μM): 47.4%
- Inhibitory Ratio (%) of Aldose Reductase ([1]; 40 μM): 60.1%
- enhancement of 2-deoxy-[1,2-3H(N)]-glucose uptake [4, 5]: enhancement of 2-deoxy-[1,2-^3H(N)]-glucose uptake was found

Molecule: CC12CCC(O)C(C)(C)C1Cc1c(O)ccc(C(=O)/C=C/c3ccc(O)cc3)c1O2 (stereo not shown) [TB1]
- induction of biosynthesis of triglyceride (inducing action on differentiation into mature adipocytes) [2]: induction of biosynthesis of triglyceride was found
- inhibitory actions for aldose reductase [3]: inhibitory actions for aldose reductase are found

Molecule: xanthoangelol H
- induction of biosynthesis of triglyceride (inducing action on differentiation into mature adipocytes) [2]: induction of biosynthesis of triglyceride was found
- Inhibitory Ratio (%) of Aldose Reductase ([1]; 2.5 μM): 40.4%
- Inhibitory Ratio (%) of Aldose Reductase ([1]; 5 μM): 57.8%
- Inhibitory Ratio (%) of Aldose Reductase ([1]; 10 μM): 72.2%
- Inhibitory Ratio (%) of Aldose Reductase ([1]; 20 μM): 80.8%
- enhancement of 2-deoxy-[1,2-3H(N)]-glucose uptake [4, 5]: enhancement of 2-deoxy-[1,2-^3H(N)]-glucose uptake was found

Molecule: insulin: insulin (manufactured by TAKARA BIO INC.), positive control [reference compound]
- induction of triglyceride biosynthesis (activity of inducing differentiation into adipocytes) ([2]; leaf and stem extracts (Example 3) at final 0.011-0.2%, insulin positive control, compared to dimethyl sulfoxide group): induction of triglyceride biosynthesis could be also confirmed
- enhancement of 2-deoxy-[1,2-3H(N)]-glucose uptake [4, 5]: enhancement of 2-deoxy-[1,2-^3H(N)]-glucose uptake was found
- enhancement of 2-deoxy-[1,2-3H(N)]-glucose uptake ([4]; root extracts (Example 4) at final 0.022-0.2%): enhancement of 2-deoxy-[1,2-^3H(N)]-glucose uptake was found

Molecule: COc1ccc(C(=O)/C=C/c2ccc(O)cc2)c(O)c1CC=C(C)C [4-hydroxyderricin]
- induction of biosynthesis of triglyceride (inducing action on differentiation into mature adipocytes) [2]: induction of biosynthesis of triglyceride was found
- enhancement of 2-deoxy-[1,2-3H(N)]-glucose uptake [4, 5]: enhancement of 2-deoxy-[1,2-^3H(N)]-glucose uptake was found
